Measurements: US11427549B2, “Pyrimidinyloxy benzo-fused compounds as herbicides” (FMC Corporation, priority 2017, dated 2022)

What was measured:
[1] = test system: barnyardgrass (Echinochloa crus-galli); experiment: Test A preemergence, barnyardgrass; format: in vivo; settings: 0 to 100 scale (0 no effect, 100 complete control)
Source text: (§1) Seeds of plant species selected from barnyardgrass (Echinochloa crus-galli), kochia (Kochia scoparia), ragweed (common ragweed, Ambrosia elatior), ryegrass, Italian (Italian ryegrass, Lolium multiflorum), foxtail, giant (giant foxtail, Setaria faberii), foxtail, green (green foxtail, Setaria viridis) and pigweed (Amaranthus retroflexus) were planted into a blend of loam soil and sand and treated preemergence with a directed soil spray using test chemicals formulated in a non-phytotoxic solvent mixture which included a surfactant.
(§2) At the same time, plants selected from these weed species and also wheat (Triticum aestivum), corn (Zea mays), blackgrass (Alopecurus myosuroides), and galium (catchweed bedstraw, Galium aparine) were planted in pots containing the same blend of loam soil and sand and treated with postemergence applications of test chemicals formulated in the same manner. Plants ranged in height from 2 to 10 cm and were in the one- to two-leaf stage for the postemergence treatment. Treated plants and untreated controls were maintained in a greenhouse for approximately 10 days, after which time all treated plants were compared to untreated controls and visually evaluated for injury. […] A dash (-) response means no test result.

[2] = test system: kochia (Kochia scoparia); experiment: Test A preemergence, kochia; format: in vivo; settings: 0 to 100 scale (0 no effect, 100 complete control)
Source text: as §1, §2

[3] = test system: ryegrass, Italian (Italian ryegrass, Lolium multiflorum); experiment: Test A preemergence, ryegrass, Italian; format: in vivo; settings: 0 to 100 scale (0 no effect, 100 complete control)
Source text: as §1, §2

[4] = test system: foxtail, giant (giant foxtail, Setaria faberii); experiment: Test A preemergence, foxtail, giant; format: in vivo; settings: 0 to 100 scale (0 no effect, 100 complete control)
Source text: as §1, §2

[5] = test system: pigweed (Amaranthus retroflexus); experiment: Test A preemergence, pigweed; format: in vivo; settings: 0 to 100 scale (0 no effect, 100 complete control)
Source text: as §1, §2

[6] = test system: barnyardgrass (Echinochloa crus-galli); experiment: Test A postemergence, barnyardgrass; format: in vivo; settings: 0 to 100 scale (0 no effect, 100 complete control)
Source text: as §1, §2

[7] = test system: kochia (Kochia scoparia); experiment: Test A postemergence, kochia; format: in vivo; settings: 0 to 100 scale (0 no effect, 100 complete control)
Source text: as §1, §2

[8] = test system: ragweed (common ragweed, Ambrosia elatior); experiment: Test A postemergence, ragweed; format: in vivo; settings: 0 to 100 scale (0 no effect, 100 complete control)
Source text: as §1, §2

[9] = test system: ryegrass, Italian (Italian ryegrass, Lolium multiflorum); experiment: Test A postemergence, ryegrass, Italian; format: in vivo; settings: 0 to 100 scale (0 no effect, 100 complete control)
Source text: as §1, §2

[10] = test system: foxtail, giant (giant foxtail, Setaria faberii); experiment: Test A postemergence, foxtail, giant; format: in vivo; settings: 0 to 100 scale (0 no effect, 100 complete control)
Source text: as §1, §2

[11] = test system: pigweed (Amaranthus retroflexus); experiment: Test A postemergence, pigweed; format: in vivo; settings: 0 to 100 scale (0 no effect, 100 complete control)
Source text: as §1, §2

[12] = test system: wheat (Triticum aestivum); experiment: Test A postemergence, wheat; format: in vivo; settings: 0 to 100 scale (0 no effect, 100 complete control)
Source text: as §1, §2

[13] = test system: corn (Zea mays); experiment: Test A postemergence, corn; format: in vivo; settings: 0 to 100 scale (0 no effect, 100 complete control)
Source text: as §1, §2

[14] = test system: blackgrass (Alopecurus myosuroides); experiment: Test A postemergence, blackgrass; format: in vivo; settings: 0 to 100 scale (0 no effect, 100 complete control)
Source text: as §1, §2

[15] = test system: galium (catchweed bedstraw, Galium aparine); experiment: Test A postemergence, galium; format: in vivo; settings: 0 to 100 scale (0 no effect, 100 complete control)
Source text: as §1, §2

[16] = test system: rice (Oryza sativa); experiment: Test B flooded paddy test, rice; settings: Flood, 250 g ai/ha, applied to paddy water, 2-leaf stage, visually evaluated after 13 to 15 days
[17] = test system: ducksalad (Heteranthera limosa); experiment: Test B flooded paddy test, ducksalad; settings: Flood, 250 g ai/ha, applied to paddy water, 2-leaf stage, visually evaluated after 13 to 15 days
[18] = test system: barnyardgrass (Echinochloa crus-galli); experiment: Test B flooded paddy test, barnyardgrass; settings: Flood, 250 g ai/ha, applied to paddy water, 2-leaf stage, visually evaluated after 13 to 15 days
[19] = test system: ragweed (common ragweed, Ambrosia elatior); experiment: Test A preemergence, ragweed; format: in vivo; settings: 0 to 100 scale (0 no effect, 100 complete control)
Source text: as §1, §2

[20] = test system: foxtail, green (green foxtail, Setaria viridis); experiment: Test A preemergence, foxtail, green; format: in vivo; settings: 0 to 100 scale (0 no effect, 100 complete control)
Source text: as §1, §2

[21] = test system: foxtail, green (green foxtail, Setaria viridis); experiment: Test A postemergence, foxtail, green; format: in vivo; settings: 0 to 100 scale (0 no effect, 100 complete control)
Source text: as §1, §2

Compound | Plant response rating, Barnyardgrass ([1]; 31 g ai/ha) | Plant response rating, Barnyardgrass ([1]; 125 g ai/ha) | Plant response rating, Kochia ([2]; 31 g ai/ha) | Plant response rating, Kochia ([2]; 125 g ai/ha) | Plant response rating, Ryegrass, Italian ([3]; 31 g ai/ha) | Plant response rating, Ryegrass, Italian ([3]; 125 g ai/ha) | Plant response rating, Pigweed ([5]; 31 g ai/ha) | Plant response rating, Pigweed ([5]; 125 g ai/ha) | Plant response rating, Barnyardgrass ([6]; 125 g ai/ha) | Plant response rating, Kochia ([7]; 125 g ai/ha) | Plant response rating, Ragweed ([8]; 125 g ai/ha) | Plant response rating, Ryegrass, Italian ([9]; 125 g ai/ha) | Plant response rating, Pigweed ([11]; 125 g ai/ha) | Plant response rating, Wheat ([12]; 125 g ai/ha) | Plant response rating, Corn ([13]; 125 g ai/ha) | Plant response rating, Blackgrass ([14]; 125 g ai/ha) | Plant response rating, Galium ([15]; 125 g ai/ha) | Plant response rating, Rice (0 to 100 scale, 0 is no effect, 100 is complete control) [16] | Plant response rating, Ducksalad (0 to 100 scale, 0 is no effect, 100 is complete control) [17] | Plant response rating, Barnyardgrass (0 to 100 scale, 0 is no effect, 100 is complete control) [18] | further results
O=C1OCC(CCCC(F)(F)F)c2c(Oc3ncc(Cl)cn3)cccc21 (stereo not shown) [Compound 16, 5-[(5-Chloro-2-pyrimidinyl)oxy]-3,4-dihydro-4-(4,4,4,-trifluorobutyl)-1H-2benzopyran-1-one] | 60 | 100 | 10 | 100 | 10 | 70 | 100 | 100 | 80 | 100 | 50 | 80 | 100 | 50 | 40 | 90 | 100 | 15 | 100 | 75 | Plant response rating, Foxtail, Giant ([4]; 31 g ai/ha): 80; Plant response rating, Foxtail, Giant ([4]; 125 g ai/ha): 100; Plant response rating, Barnyardgrass ([6]; 31 g ai/ha): 30; Plant response rating, Kochia ([7]; 31 g ai/ha): 80; Plant response rating, Ragweed ([8]; 31 g ai/ha): 10; Plant response rating, Ryegrass, Italian ([9]; 31 g ai/ha): 20; Plant response rating, Foxtail, Giant ([10]; 31 g ai/ha): 30; Plant response rating, Foxtail, Giant ([10]; 125 g ai/ha): 90; Plant response rating, Pigweed ([11]; 31 g ai/ha): 80; Plant response rating, Wheat ([12]; 31 g ai/ha): 50; Plant response rating, Corn ([13]; 31 g ai/ha): 0; Plant response rating, Blackgrass ([14]; 31 g ai/ha): 80; Plant response rating, Galium ([15]; 31 g ai/ha): 90
O=C1CC(CCCC(F)(F)F)c2c(Oc3ncc(Cl)cn3)cccc21 (stereo not shown) [Compound 6, 4-[(5-Chloropyrimidin-2-pyrimidinyl)oxy]-2,3-dihydro-3-(4,4,4-trifluorobutyl)-1H-inden-1-one] | 0 | 90 | 0 | 80 | 0 | 10 | 0 | 100 | 40 | 60 | 0 | 30 | 100 | 10 | 20 | 30 | 90 | 20 | 100 | 40 | Plant response rating, Ragweed ([19]; 31 g ai/ha): 0; Plant response rating, Ragweed ([19]; 125 g ai/ha): 0; Plant response rating, Foxtail, Green ([20]; 31 g ai/ha): 20; Plant response rating, Foxtail, Green ([20]; 125 g ai/ha): 100; Plant response rating, Barnyardgrass ([6]; 31 g ai/ha): 10; Plant response rating, Kochia ([7]; 31 g ai/ha): 10; Plant response rating, Ragweed ([8]; 31 g ai/ha): 0; Plant response rating, Ryegrass, Italian ([9]; 31 g ai/ha): 0; Plant response rating, Foxtail, Green ([21]; 31 g ai/ha): 10; Plant response rating, Foxtail, Green ([21]; 125 g ai/ha): 40; Plant response rating, Pigweed ([11]; 31 g ai/ha): 90; Plant response rating, Wheat ([12]; 31 g ai/ha): 0; Plant response rating, Corn ([13]; 31 g ai/ha): 0; Plant response rating, Blackgrass ([14]; 31 g ai/ha): 10; Plant response rating, Galium ([15]; 31 g ai/ha): 60
5-Chloro-2-[[1-oxido-3-(4,4,4-trifluorobutyl)-3H-2,1-benzoxathiol-4-yl]oxy]pyrimidine [Compound 15] | – | 30 | – | 20 | – | 0 | – | 70 | 30 | 80 | 30 | 20 | 70 | 10 | 20 | 30 | 80 | 0 | 0 | 0 | Plant response rating, Barnyardgrass ([1]; 500 g ai/ha): 70; Plant response rating, Kochia ([2]; 500 g ai/ha): 80; Plant response rating, Ragweed ([19]; 125 g ai/ha): 0; Plant response rating, Ragweed ([19]; 500 g ai/ha): 20; Plant response rating, Ryegrass, Italian ([3]; 500 g ai/ha): 30; Plant response rating, Foxtail, Green ([20]; 125 g ai/ha): 50; Plant response rating, Foxtail, Green ([20]; 500 g ai/ha): 100; Plant response rating, Pigweed ([5]; 500 g ai/ha): 100; Plant response rating, Barnyardgrass ([6]; 500 g ai/ha): 60; Plant response rating, Kochia ([7]; 500 g ai/ha): 90; Plant response rating, Ragweed ([8]; 500 g ai/ha): 60; Plant response rating, Ryegrass, Italian ([9]; 500 g ai/ha): 90; Plant response rating, Foxtail, Green ([21]; 125 g ai/ha): 20; Plant response rating, Foxtail, Green ([21]; 500 g ai/ha): 80; Plant response rating, Pigweed ([11]; 500 g ai/ha): 90; Plant response rating, Wheat ([12]; 500 g ai/ha): 30; Plant response rating, Corn ([13]; 500 g ai/ha): 40; Plant response rating, Blackgrass ([14]; 500 g ai/ha): 90; Plant response rating, Galium ([15]; 500 g ai/ha): 80
